Experiment in all cases: In vitro antifungal activity (MIC), SGA agar plate, 27° C., 7 days
The subject of assay [1] is Trichophyton rubrum IFO 6204. The class given is cell-based. To be noted: for MIC: Trichophyton rubrum, IFO6204, 168 h, T. rubrum IFO 6204, read-out: MIC value against Trichophyton. The method, then:
(§1) In vitro antifungal activity of compounds against dormatophytes
Trichophyton rubrunm IFO 6204
(§2) Preparation of inoculation fungal solution:
(§3) To a strain cultured on Sabouraud's glucose agar (SGA) slant medium at 27° C. for 1 to 2 weeks was added 0.1% (v/v) Tween 80-added sterilized physiological saline solution, followed by rubbing with a platinum spatula. The resulting suspension of conidia was filtered through a sterilized gauze to eliminate mycelium mass. Thereafter, the conidia was counted by an erythrocytometer (Thoma) The suspension of the conidia was diluted with 0.1% (v/v) Tween 80-added sterilized physiological saline solution so as to have a concentration of 1×10^6 conidia/ml to obtain an inoculation fungal solution.
(§4) Each compound was dissolved into dimethyl sulfoxide (DMSO) to prepare a diluent having a […]. The concentration of DMSO in a medium was adjusted to hair 1% (v/v).
(§5) Measurement of antifungal activity:
(§6) A SGA plate medium containing a given amount of a compound (20 ml/dish) was prepared. A loopful of the inoculation fungal solution was applied in the form of a line to each plate medium at a length of about 15 mm, and was allowed to stand for cultivation at 27° C. for 7 days. The minimum inhibitory concentration (MIC) of the compound at which a growth of a microorganism cannot be visually recognized was determined.

For assay [2], the system named is Trichophyton mentagrophytes IFO 5811. The class given is cell-based. To be noted: for MIC: Trichophyton mentagrophytes, IFO5811, 168 h, T. mentagrophytes IFO 5811, read-out: MIC value against Trichophyton. How it is done:
as §1
Trichophyton mentagrophytes IFO 5811
as §2, §3, §4, §5, §6

Another assay concerns T. rubrum IFO 5805. The class given is cell-based, Trichophyton rubrum. The note with it: for MIC: Trichophyton rubrum, IFO5805, 168 h, read-out: MIC value against Trichophyton.
The test system of assay [3] is Trichophyton mentagrophytes TIMM 2789. The class given is cell-based. To be noted: for MIC: Trichophyton mentagrophytes, TIMM2789, 168 h, T. mentagrophytes TIMM 2789, read-out: MIC value against Trichophyton. How it is done: as §1
Trichophyton mentagrophytes TIMM 2789
as §2, §3, §4, §5, §6

One may read the MIC as the least concentration at which growth counts as inhibited.

Each structure is given as a SMILES string. Converted amounts (≈) assume the structure as drawn. Like-named read-outs stand apart in the source and are kept apart here. A value given as a limit tells only on which side of the number the result lay.

For the compound `N#C/C(=C1/SC[C@@H](c2ccc(F)cc2)S1)n1ccnc1` [Compound No. 1, (R)-(E)-[4-(4-fluorophenyl)-1,3-dithicolan-2-ylidene]-1-imidazolylacetonitrile], the “MIC value against Trichophyton” value was 0.32 µg/mL (≈ 1.05 µM) in assay [1] (T. rubrum IFO 6204), over 0.64 µg/mL in assay [2] (T. mentagrophytes IFO 5811), 0.64 µg/mL (≈ 2.11 µM) in the assay on T. rubrum IFO 5805 and 0.64 µg/mL (≈ 2.11 µM) in assay [3] (T. mentagrophytes TIMM 2789). The MIC in assay [1] is 0.16 µg/mL (≈ 0.527 µM); in assay [2] it was 0.64 µg/mL (≈ 2.11 µM); in the assay with T. rubrum IFO 5805 it was 0.32 µg/mL (≈ 1.05 µM); in assay [3], 0.32 µg/mL (≈ 1.05 µM).
Consider `N#C/C(=C1/SC[C@@H](c2cccc(Cl)c2)S1)n1ccnc1` [Compound No. 2], for which the “MIC value against Trichophyton” value in assay [1] (T. rubrum IFO 6204) was 0.16 µg/mL (≈ 0.5 µM); in assay [1] (T. rubrum IFO 6204, listed as 2'), 0.64 µg/mL (≈ 2 µM); in assay [2] (T. mentagrophytes IFO 5811) it was over 0.64 µg/mL; in the assay with T. rubrum IFO 5805, over 0.64 µg/mL; in assay [3] (T. mentagrophytes TIMM 2789), over 0.64 µg/mL. Also, the MIC is 0.64 µg/mL (≈ 2 µM) in assay [2], 0.64 µg/mL (≈ 2 µM) with T. rubrum IFO 5805 and 0.32 µg/mL (≈ 1 µM) in assay [3].
In the case of `N#C/C(=C1/SC[C@@H](c2ccc(Br)cc2)S1)n1ccnc1` [compound 3], the “MIC value against Trichophyton” value in assay [1] (T. rubrum IFO 6204) was over 0.08 µg/mL. In addition, the MIC in assay [1] is 0.08 µg/mL (≈ 0.22 µM); in assay [2], over 0.08 µg/mL; in the assay on T. rubrum IFO 5805 it was over 0.08 µg/mL; in assay [3], over 0.08 µg/mL.
On to `N#C/C(=C1/SC[C@@H](c2ccc(Cl)cc2)S1)n1ccnc1` [compound 4], for which, in assay [1] (T. rubrum IFO 6204), the “MIC value against Trichophyton” value was over 0.08 µg/mL. The MIC in assay [1] is 0.08 µg/mL (≈ 0.25 µM); in assay [2] it was over 0.08 µg/mL; in the assay with T. rubrum IFO 5805, over 0.08 µg/mL; in assay [3] it was over 0.08 µg/mL.
Take `N#C/C(=C1/SC[C@@H](c2ccccc2F)S1)n1ccnc1` [compound 5]: the MIC in assay [1] came to 0.01 µg/mL (≈ 0.033 µM); in assay [2], 0.08 µg/mL (≈ 0.264 µM); with T. rubrum IFO 5805 it was 0.04 µg/mL (≈ 0.132 µM); in assay [3], 0.02 µg/mL (≈ 0.0659 µM). The “MIC value against Trichophyton” value was 0.16 µg/mL (≈ 0.527 µM) in assay [2] (T. mentagrophytes IFO 5811) and 0.04 µg/mL (≈ 0.132 µM) in assay [3] (T. mentagrophytes TIMM 2789).
In the case of `Cc1ccccc1[C@@H]1CS/C(=C(/C#N)n2ccnc2)S1` [compound 6], the MIC is 0.08 µg/mL (≈ 0.267 µM) in assay [1], 0.32 µg/mL (≈ 1.07 µM) in assay [2] and 0.16 µg/mL (≈ 0.534 µM) with T. rubrum IFO 5805. Also, the “MIC value against Trichophyton” value against T. rubrum IFO 5805 was determined as 0.32 µg/mL (≈ 1.07 µM); in assay [3] (T. mentagrophytes TIMM 2789), 0.08 µg/mL (≈ 0.267 µM); in assay [3] (T. mentagrophytes TIMM 2789, listed as 6') it was 0.32 µg/mL (≈ 1.07 µM).
On to `N#C/C(=C1/SC[C@@H](c2ccc(F)cc2F)S1)n1ccnc1` [compound 7], for which the “MIC value against Trichophyton” value was 0.04 µg/mL (≈ 0.124 µM) in assay [1] (T. rubrum IFO 6204), 0.32 µg/mL (≈ 0.996 µM) in assay [2] (T. mentagrophytes IFO 5811), 0.16 µg/mL (≈ 0.498 µM) with T. rubrum IFO 5805 and 0.08 µg/mL (≈ 0.249 µM) in assay [3] (T. mentagrophytes TIMM 2789). The MIC in assay [1] turned out to be 0.02 µg/mL (≈ 0.0622 µM); in assay [2], 0.16 µg/mL (≈ 0.498 µM); with T. rubrum IFO 5805, 0.08 µg/mL (≈ 0.249 µM); in assay [3], 0.04 µg/mL (≈ 0.124 µM).
On to `N#C/C(=C1/SC[C@@H](c2ccccc2Br)S1)n1ccnc1` [compound 8], for which the “MIC value against Trichophyton” value in assay [1] (T. rubrum IFO 6204) turned out to be 0.02 µg/mL (≈ 0.0549 µM); in assay [2] (T. mentagrophytes IFO 5811), 0.04 µg/mL (≈ 0.11 µM); in assay [2] (T. mentagrophytes IFO 5811, listed as 8') it was 0.16 µg/mL (≈ 0.439 µM); with T. rubrum IFO 5805 it was 0.01 µg/mL (≈ 0.0275 µM); against T. rubrum IFO 5805 (listed as 8') it was 0.04 µg/mL (≈ 0.11 µM); in assay [3] (T. mentagrophytes TIMM 2789), 0.04 µg/mL (≈ 0.11 µM). Also, the MIC was 0.01 µg/mL (≈ 0.0275 µM) in assay [1] and 0.02 µg/mL (≈ 0.0549 µM) in assay [3].
Turning to `N#C/C(=C1/SC[C@@H](c2ccccc2OC(F)F)S1)n1ccnc1` [compound 9], the “MIC value against Trichophyton” value in assay [1] (T. rubrum IFO 6204) amounted to 0.64 µg/mL (≈ 1.82 µM); in assay [2] (T. mentagrophytes IFO 5811), 2.56 µg/mL (≈ 7.29 µM); in the assay on T. rubrum IFO 5805 it was 0.64 µg/mL (≈ 1.82 µM); in assay [3] (T. mentagrophytes TIMM 2789), 1.28 µg/mL (≈ 3.64 µM). Moreover, the MIC in assay [1] amounted to 0.32 µg/mL (≈ 0.911 µM); in assay [2], 1.28 µg/mL (≈ 3.64 µM); with T. rubrum IFO 5805 it was 0.32 µg/mL (≈ 0.911 µM); in assay [3] it was 0.64 µg/mL (≈ 1.82 µM).
With `N#C/C(=C1/SC[C@@H](c2ccccc2C(F)(F)F)S1)n1ccnc1` [compound 10], the “MIC value against Trichophyton” value in assay [1] (T. rubrum IFO 6204) is 0.08 µg/mL (≈ 0.226 µM); in assay [2] (T. mentagrophytes IFO 5811) it was 0.64 µg/mL (≈ 1.81 µM); with T. rubrum IFO 5805 it was 0.08 µg/mL (≈ 0.226 µM); in assay [3] (T. mentagrophytes TIMM 2789) it was 0.32 µg/mL (≈ 0.906 µM). In addition, the minimal inhibitory concentration (MIC) stood at 0.04 µg/mL (≈ 0.113 µM) in assay [1], 0.32 µg/mL (≈ 0.906 µM) in assay [2], 0.04 µg/mL (≈ 0.113 µM) in the assay with T. rubrum IFO 5805 and 0.16 µg/mL (≈ 0.453 µM) in assay [3].
Take `N#C/C(=C1/SC[C@@H](c2ccc(Br)cc2Br)S1)n1ccnc1` [compound 11]: the “MIC value against Trichophyton” value in assay [1] (T. rubrum IFO 6204) turned out to be 0.02 µg/mL (≈ 0.0451 µM); in the assay with T. rubrum IFO 5805, 0.04 µg/mL (≈ 0.0903 µM). The MIC in assay [1] is 0.01 µg/mL (≈ 0.0226 µM); in assay [2], 0.04 µg/mL (≈ 0.0903 µM); in the assay with T. rubrum IFO 5805, 0.02 µg/mL (≈ 0.0451 µM); in assay [3], 0.02 µg/mL (≈ 0.0451 µM).
Consider `N#C/C(=C1/SC[C@@H](c2ccc(F)cc2Cl)S1)n1ccnc1` [compound 12], for which the “MIC value against Trichophyton” value in assay [1] (T. rubrum IFO 6204) worked out at 0.04 µg/mL (≈ 0.118 µM); in assay [2] (T. mentagrophytes IFO 5811), 0.04 µg/mL (≈ 0.118 µM); in assay [2] (T. mentagrophytes IFO 5811, listed as 12'), 0.16 µg/mL (≈ 0.474 µM); against T. rubrum IFO 5805, 0.04 µg/mL (≈ 0.118 µM); in assay [3] (T. mentagrophytes TIMM 2789), 0.04 µg/mL (≈ 0.118 µM). The MIC (in assay [1]; with T. rubrum IFO 5805; in assay [3]) was 0.02 µg/mL (≈ 0.0592 µM) each time.
`N#C/C(=C1/SC[C@@H](c2ccc(Br)cc2Cl)S1)n1ccnc1` [compound 13, (R)-(E)-[4-(2-chloro-4-bromophenyl) -1,3-dithiolan-2-ylidene]-1-imidazolylacetonitrile]: the “MIC value against Trichophyton” value in assay [1] (T. rubrum IFO 6204) is 0.02 µg/mL (≈ 0.0502 µM); in assay [2] (T. mentagrophytes IFO 5811), 0.04 µg/mL (≈ 0.1 µM); in the assay on T. rubrum IFO 5805 it was 0.02 µg/mL (≈ 0.0502 µM); in assay [3] (T. mentagrophytes TIMM 2789), 0.02 µg/mL (≈ 0.0502 µM). The MIC worked out at 0.01 µg/mL (≈ 0.0251 µM) in assay [1], 0.02 µg/mL (≈ 0.0502 µM) in assay [2], 0.01 µg/mL (≈ 0.0251 µM) in the assay with T. rubrum IFO 5805 and 0.01 µg/mL (≈ 0.0251 µM) in assay [3].

The values above are taken from US6127397A, “Optically active (R)-(E)-(4-substituted-phenyl-1,3-dithiolan-2-ylidene)-1-imidazolylaceto nitrile derivative, antifungal composition comprising the same, and method for producing the same” (Nihon Nohyaku Co., Ltd., priority 1996, dated 2000).
